The test system of test [1] is Rattus norvegicus. The experiment in a line: Analgesic activity in Sprague-Dawley rat brewer's yeast treated foot assessed as response threshold at 32 mg/kg, po. Format: functional.
The test system of test [2] is Rattus norvegicus. The experiment in a line: Analgesic activity in Sprague-Dawley rat normal foot assessed as response threshold at 32 mg/kg, po. It counts as functional.

73 compounds from ChEMBL document CHEMBL3244164, “Synthesis and analgesic activity of 1,3-dihydro-3-(substituted phenyl)imidazo[4,5-b]pyridin-2-ones and 3-(substituted phenyl)-1,2,3-triazolo[4,5-b]pyridines” (J Med Chem, 1978) can be followed below.

In the case of `Cc1ccc(-n2c(=O)[nH]c3cccnc32)cc1C`, the Activity in test [1] is recorded as under 25 mm; in test [2], under 40 mm.

`C#CCn1c(=O)n(-c2ccc3c(c2)OCO3)c2ncccc21`: the figures for the Activity in test [1] and in test [2] were under 25 mm and under 40 mm, respectively.

In the case of `O=c1n(-c2ccc3c(c2)OCO3)c2ncccc2n1S(=O)(=O)C(F)(F)F`, the results for the Activity in test [1] and in test [2] were under 25 mm and under 40 mm, respectively.

For `c1cnc2c(c1)nnn2-c1ccc2c(c1)CCC2`, the values for the Activity in test [1] and in test [2] were under 25 mm and under 40 mm, respectively.

Turning to `Cc1c(Cl)cccc1-n1nnc2cccnc21`, the Activity in test [1] is listed as under 25 mm; in test [2] it was under 40 mm.

As for `C=C=Cn1c(=O)n(-c2ccc3c(c2)OCO3)c2ncccc21`, the values for the Activity in test [1] and in test [2] were under 25 mm and under 40 mm, respectively.

Turning to `Cc1cccc(-n2c(=O)[nH]c3cccnc32)n1`, the figures for the Activity in test [1] and in test [2] were under 25 mm and under 40 mm, respectively.

As to `CC(=O)n1c(=O)n(-c2ccc3c(c2)OCO3)c2ncccc21`, the Activity in test [1] was determined as 25 mm; in test [2], 40 mm.

As to `Cc1cccc(C)c1-n1c(=O)[nH]c2cccnc21`, the results for the Activity in test [1] and in test [2] were 25 mm and under 40 mm, respectively.

With `Cc1cccc(-n2nnc3cccnc32)n1`, the Activity was under 25 mm in test [1] and under 40 mm in test [2].

As to `O=c1[nH]c2cncnc2n1-c1ccccc1F`, the Activity was under 25 mm in test [1] and under 40 mm in test [2].

As to `COc1cc(-n2nnc3cccnc32)ccc1C`, the Activity in test [1] is under 25 mm; in test [2] it was under 40 mm.

In the case of `CC(C)c1ccccc1-n1nnc2cccnc21`, the Activity is reported as 25 mm in test [1] and under 40 mm in test [2].

For the compound `O=c1[nH]c2cccnc2n1-c1cc(F)ccc1F`, the Activity in test [1] was under 25 mm; in test [2], under 40 mm.

Take `CN(C)c1ccccc1-n1c(=O)[nH]c2cccnc21`: the Activity is under 25 mm in test [1] and under 40 mm in test [2].

Turning to `c1ccc(-c2nc3cccnc3n2-c2ccc3c(c2)OCO3)cc1`, the Activity is on record as under 25 mm in test [1] and under 40 mm in test [2].

Consider `C=CC(C)n1c(=O)n(-c2ccc3c(c2)OCO3)c2ncccc21` (stereo unspecified), for which the figures for the Activity in test [1] and in test [2] were under 25 mm and under 40 mm, respectively.

Consider `CC(=O)OCn1c(=O)n(-c2ccc3c(c2)OCO3)c2ncccc21`, for which the Activity in test [1] is under 25 mm; in test [2] it was under 40 mm.

`O=c1[nH]c2cccnc2n1-c1ccc2c(c1)OC1(CCCCC1)O2`: the Activity was under 25 mm in test [1] and under 40 mm in test [2].

For `O=c1[nH]c2cccnc2n1-c1ccc(F)cc1`, the values for the Activity in test [1] and in test [2] were 25 mm and 40 mm, respectively.

As to `COc1ccc(-n2nnc3cccnc32)c(OC)c1`, the Activity in test [1] is under 25 mm; in test [2], under 40 mm.

Regarding `NC(=O)c1ccccc1-n1nnc2cccnc21`, the values for the Activity in test [1] and in test [2] were 25 mm and under 40 mm, respectively.

With `CC(=O)Oc1ccccc1C(=O)O` [ASPIRIN], the Activity in test [1] is recorded as 25 mm; in test [2], under 40 mm.

Consider `CC(=O)c1ccc(-n2nnc3cccnc32)cc1`, for which the Activity in test [1] was under 25 mm; in test [2] it was under 40 mm.

Regarding `O=c1[nH]c2cccnc2n1-c1ccc(Oc2ccccc2)cc1`, the results for the Activity in test [1] and in test [2] were under 25 mm and under 40 mm, respectively.

For the compound `c1cnc2c(c1)nnn2-c1ccc2c(c1)COC2`, the Activity in test [1] is listed as under 25 mm; in test [2], under 40 mm.

As to `c1cnc2c(c1)nnn2-c1ccc2c(c1)COCO2`, the results for the Activity in test [1] and in test [2] were under 25 mm and under 40 mm, respectively.

On to `O=c1[nH]c2cccnc2n1-c1cc2c(cc1[N+](=O)[O-])OCO2`, for which the Activity is under 25 mm in test [1] and under 40 mm in test [2].

As to `COc1ccc(-n2c(=O)[nH]c3cccnc32)cc1`, the Activity in test [1] was under 25 mm; in test [2] it was under 40 mm.

As for `C=CCn1c(=O)n(-c2ccc3c(c2)COCO3)c2ncccc21`, the Activity is recorded as under 25 mm in test [1] and under 40 mm in test [2].

Regarding `COc1ccc(OC)c(-n2c(=O)[nH]c3cccnc32)c1`, the Activity in test [1] is listed as under 25 mm; in test [2], under 40 mm.

Take `O=c1[nH]c2cccnc2n1-c1cccc2c1CCCC2`: the results for the Activity in test [1] and in test [2] were under 25 mm and under 40 mm, respectively.

Turning to `C=CCn1c(=O)n(-c2cccc3c2CCCC3)c2ncccc21`, the values for the Activity in test [1] and in test [2] were under 25 mm and under 40 mm, respectively.

Take `O=c1[nH]c2ccccc2n1-c1ccc2c(c1)OCO2`: the Activity was under 25 mm in test [1] and under 40 mm in test [2].

Regarding `Cc1c(Cl)cccc1-n1c(=O)[nH]c2cccnc21`, the Activity is reported as under 25 mm in test [1] and under 40 mm in test [2].

As for `O=C(O)c1ccc(-n2c(=O)[nH]c3cccnc32)cc1`, the Activity is reported as under 25 mm in test [1] and under 40 mm in test [2].

With `O=c1[nH]c2cccnc2n1C1CCCCC1`, the Activity in test [1] is under 25 mm; in test [2], under 40 mm.

Take `Brc1ccccc1-n1nnc2cccnc21`: the Activity in test [1] is given as 25 mm; in test [2], under 40 mm.

Consider `O=c1[nH]c2cccnc2n1-c1ccc(Cl)cc1Cl`, for which the results for the Activity in test [1] and in test [2] were 25 mm and under 40 mm, respectively.

Regarding `c1ccc(-n2nnc3cccnc32)cc1`, the Activity in test [1] is under 25 mm; in test [2] it was under 40 mm.

As for `CCOC(=O)Cn1c(=O)n(-c2ccc3c(c2)OCO3)c2ncccc21`, the Activity in test [1] is under 25 mm; in test [2], under 40 mm.

Consider `S=c1[nH]c2cccnc2n1-c1ccc2c(c1)OCO2`, for which the Activity in test [1] is listed as under 25 mm; in test [2] it was under 40 mm.

With `O=C(O)c1ccc(-n2nnc3cccnc32)cc1`, the Activity in test [1] is listed as under 25 mm; in test [2] it was under 40 mm.

On to `O=c1n(CC2CO2)c2cccnc2n1-c1ccc2c(c1)OCO2` (stereo unspecified), for which the figures for the Activity in test [1] and in test [2] were under 25 mm and under 40 mm, respectively.

In the case of `Clc1ccc2nnn(-c3ccccc3)c2n1`, the Activity is listed as under 25 mm in test [1] and under 40 mm in test [2].

As for `CCc1ccc(-n2c(=O)[nH]c3cccnc32)cc1`, the Activity in test [1] was under 25 mm; in test [2] it was under 40 mm.

Consider `CC(=O)Nc1ccc(-n2nnc3cccnc32)cc1`, for which the Activity was under 25 mm in test [1] and under 40 mm in test [2].

As for `COc1cc(-n2nnc3cccnc32)cc(OC)c1OC`, the values for the Activity in test [1] and in test [2] were under 25 mm and under 40 mm, respectively.

For `O=c1[nH]c2cccnc2n1-c1ccc(Cl)cc1`, the Activity is on record as under 25 mm in test [1] and under 40 mm in test [2].

Turning to `O=C(O)Cc1ccc(-n2c(=O)[nH]c3cccnc32)cc1`, the Activity is under 25 mm in test [1] and under 40 mm in test [2].

As to `C=CCn1c(=O)n(-c2ccc3c(c2)OCO3)c2ncncc21`, the Activity in test [1] is under 25 mm; in test [2], under 40 mm.

As for `CN(C)c1ccccc1-n1nnc2cccnc21`, the Activity is given as under 25 mm in test [1] and under 40 mm in test [2].

As for `Cc1cc2c(cc1-n1nnc3cccnc31)OCO2`, the figures for the Activity in test [1] and in test [2] were under 25 mm and under 40 mm, respectively.

With `CCC1(CC)Oc2ccc(-n3nnc4cccnc43)cc2O1`, the Activity was under 25 mm in test [1] and under 40 mm in test [2].

For `O=c1[nH]c2cccnc2n1-c1c(F)cccc1F`, the Activity in test [1] is under 25 mm; in test [2] it was under 40 mm.

Turning to `COc1ccccc1-n1nnc2cccnc21`, the Activity in test [1] is recorded as 25 mm; in test [2] it was under 40 mm.

For the compound `O=c1n(C2=NCCS2)c2cccnc2n1-c1ccc2c(c1)OCO2`, the Activity in test [1] is listed as under 25 mm; in test [2] it was under 40 mm.

Turning to `COc1ccc(-n2c(=O)[nH]c3cccnc32)c(OC)c1`, the results for the Activity in test [1] and in test [2] were under 25 mm and under 40 mm, respectively.

In the case of `CC(C)Cc1ccc(-n2nnc3cccnc32)cc1`, the Activity is on record as under 25 mm in test [1] and under 40 mm in test [2].

Take `CC(C)CCn1c(=O)n(-c2ccc3c(c2)OCO3)c2ncccc21`: the Activity in test [1] is listed as under 25 mm; in test [2], under 40 mm.

Consider `O=c1[nH]c2cccnc2n1-c1ccc(F)cc1F`, for which the values for the Activity in test [1] and in test [2] were 25 mm and under 40 mm, respectively.

On to `O=c1[nH]c2cccnc2n1-c1ccccc1Br`, for which the values for the Activity in test [1] and in test [2] were 25 mm and under 40 mm, respectively.

With `CC(=O)Cn1c(=O)n(-c2ccc3c(c2)OCO3)c2ncccc21`, the Activity was under 25 mm in test [1] and under 40 mm in test [2].

As to `CCc1ccc(-n2nnc3cccnc32)cc1`, the Activity in test [1] is under 25 mm; in test [2], under 40 mm.

As to `O=c1n(-c2ccc3c(c2)OCO3)c2ncccc2n1C(F)(F)C(F)Cl` (stereo unspecified), the Activity in test [1] is reported as under 25 mm; in test [2] it was under 40 mm.

Regarding `FC(F)(F)c1cccc(-n2nnc3cccnc32)c1`, the Activity in test [1] is 25 mm; in test [2], under 40 mm.

`Cc1ccc(-n2nnc3cccnc32)c(C)c1`: the Activity in test [1] was under 25 mm; in test [2] it was under 40 mm.

On to `Clc1ccccc1-n1nnc2cccnc21`, for which the Activity was 25 mm in test [1] and under 40 mm in test [2].

For `CCC1(CC)Oc2ccc(-n3c(=O)[nH]c4cccnc43)cc2O1`, the Activity was under 25 mm in test [1] and under 40 mm in test [2].

As for `CC(C)c1ccccc1-n1c(=O)[nH]c2cccnc21`, the Activity in test [1] is on record as under 25 mm; in test [2] it was under 40 mm.

In the case of `O=c1[nH]c2cccnc2n1-c1ccc2c(c1)CCC2`, the Activity is under 25 mm in test [1] and under 40 mm in test [2].

As to `CN(C)c1ccc(-n2nnc3cccnc32)cc1`, the results for the Activity in test [1] and in test [2] were under 25 mm and under 40 mm, respectively.

Regarding `O=c1[nH]c2cccnc2n1-c1cccc2c1OCO2`, the Activity is under 25 mm in test [1] and under 40 mm in test [2].
